Assay results from ChEMBL document CHEMBL1201862, “PubChem BioAssay data set” (2004).
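These data come from cells grown in 96-well plates and exposed to compound for 48 hours at five concentrations. At the GI50, growth is halved.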 Calls of active or inactive are those of the source. Cut-off read from the data, not from the text of the source: active = GI50 up to about 1.1 µM and inactive = higher.

Experiments:
Experiment in all cases: growth of human tumour cells (NCI), 48 h
786-0 = tested on: 786-0
BT-549 = tested on: BT-549
HCT-116 = tested on: HCT-116
M14 = tested on: M14
MDA-MB-231 = tested on: MDA-MB-231
MDA-MB-435 = tested on: MDA-MB-435
OVCAR-3 = tested on: OVCAR-3
OVCAR-4 = tested on: OVCAR-4
OVCAR-5 = tested on: OVCAR-5
RPMI-8226 = tested on: RPMI-8226
SF-268 = tested on: SF-268
SF-295 = tested on: SF-295
SK-MEL-28 = tested on: SK-MEL-28
SK-MEL-2 = tested on: SK-MEL-2
SN12C = tested on: SN12C
SR = tested on: SR
SW-620 = tested on: SW-620
TK-10 = tested on: TK-10
U-251 = tested on: U-251
HL-60 = tested on: HL-60

Structure (SMILES)	GI50 (786-0)	GI50 (BT-549)	GI50 (HCT-116)	GI50 (M14)	GI50 (MDA-MB-231)	GI50 (MDA-MB-435)	GI50 (OVCAR-3)	GI50 (OVCAR-4)	GI50 (OVCAR-5)	GI50 (RPMI-8226)	GI50 (SF-268)	GI50 (SF-295)	GI50 (SK-MEL-28)	GI50 (SK-MEL-2)	GI50 (SN12C)	GI50 (SR)	GI50 (SW-620)	GI50 (TK-10)	GI50 (U-251)	GI50 (HL-60)
O=C(O)CSc1ccc(N=C=S)cc1	82.6 µM (inactive)	56.2 µM (inactive)	64.3 µM (inactive)	86.1 µM (inactive)	84.1 µM (inactive)	81.8 µM (inactive)	94 µM (inactive)	> 100 µM (inactive)	> 100 µM (inactive)	20.8 µM (inactive)	71.6 µM (inactive)	89.3 µM (inactive)	34.8 µM (inactive)	73.3 µM (inactive)	39.3 µM (inactive)	3.43 µM (inactive)	> 100 µM (inactive)	75 µM (inactive)	72.3 µM (inactive)	–
N#CC1=C2SCCN2C(=O)C(C#N)C12CCCCC2 (stereo not drawn)	> 100 µM (inactive)	> 100 µM (inactive)	> 100 µM (inactive)	> 100 µM (inactive)	> 100 µM (inactive)	> 100 µM (inactive)	> 100 µM (inactive)	> 100 µM (inactive)	> 100 µM (inactive)	> 100 µM (inactive)	> 100 µM (inactive)	> 100 µM (inactive)	> 100 µM (inactive)	> 100 µM (inactive)	> 100 µM (inactive)	> 100 µM (inactive)	> 100 µM (inactive)	> 100 µM (inactive)	> 100 µM (inactive)	–
Cc1ccc(S(=O)ON2CCC(C(=O)O)(c3ccccc3)CC2)cc1 (stereo not drawn)	0.0773 µM (active)	> 100 µM (inactive)	> 100 µM (inactive)	> 100 µM (inactive)	> 100 µM (inactive)	> 100 µM (inactive)	> 100 µM (inactive)	> 100 µM (inactive)	> 100 µM (inactive)	> 100 µM (inactive)	> 100 µM (inactive)	> 100 µM (inactive)	> 100 µM (inactive)	–	> 100 µM (inactive)	–	> 100 µM (inactive)	> 100 µM (inactive)	> 100 µM (inactive)	> 100 µM (inactive)
O=C(OCC(OC(=O)c1ccccc1)C(OC(=O)c1ccccc1)C(OC(=O)c1ccccc1)c1cnn(-c2ccccc2)n1)c1ccccc1 (stereo not drawn)	> 100 µM (inactive)	> 100 µM (inactive)	> 100 µM (inactive)	> 100 µM (inactive)	–	> 100 µM (inactive)	> 100 µM (inactive)	> 100 µM (inactive)	> 100 µM (inactive)	> 100 µM (inactive)	> 100 µM (inactive)	> 100 µM (inactive)	> 100 µM (inactive)	–	> 100 µM (inactive)	> 100 µM (inactive)	> 100 µM (inactive)	> 100 µM (inactive)	–	> 100 µM (inactive)
Cc1ccc(S(=O)(=O)c2scc(-c3ccccc3)c2C)cc1	> 100 µM (inactive)	98.6 µM (inactive)	77.1 µM (inactive)	> 100 µM (inactive)	> 100 µM (inactive)	91 µM (inactive)	77.3 µM (inactive)	> 100 µM (inactive)	–	44.2 µM (inactive)	> 100 µM (inactive)	42.8 µM (inactive)	> 100 µM (inactive)	62.8 µM (inactive)	> 100 µM (inactive)	–	> 100 µM (inactive)	> 100 µM (inactive)	> 100 µM (inactive)	45 µM (inactive)
Cc1cc(-n2nnc(C(=O)O)c2-c2ccccc2)c2ccc(Cl)cc2n1	> 100 µM (inactive)	> 100 µM (inactive)	> 100 µM (inactive)	> 100 µM (inactive)	> 100 µM (inactive)	> 100 µM (inactive)	> 100 µM (inactive)	> 100 µM (inactive)	> 100 µM (inactive)	–	> 100 µM (inactive)	> 100 µM (inactive)	> 100 µM (inactive)	> 100 µM (inactive)	> 100 µM (inactive)	–	> 100 µM (inactive)	> 100 µM (inactive)	> 100 µM (inactive)	> 100 µM (inactive)
CCOC(=O)Cc1nc2cc(F)c(F)cc2[nH]c1=O	> 100 µM (inactive)	> 100 µM (inactive)	> 100 µM (inactive)	> 100 µM (inactive)	> 100 µM (inactive)	> 100 µM (inactive)	> 100 µM (inactive)	> 100 µM (inactive)	> 100 µM (inactive)	> 100 µM (inactive)	> 100 µM (inactive)	> 100 µM (inactive)	> 100 µM (inactive)	> 100 µM (inactive)	> 100 µM (inactive)	–	> 100 µM (inactive)	> 100 µM (inactive)	> 100 µM (inactive)	> 100 µM (inactive)
COc1ccc(Cc2nc3cc([N+](=O)[O-])ccc3n2C[C@@H]2CCCN3CCCCC23)cc1 (stereo partly drawn)	18.6 µM (inactive)	19.7 µM (inactive)	14.7 µM (inactive)	14.2 µM (inactive)	19.3 µM (inactive)	18.6 µM (inactive)	20.9 µM (inactive)	18.7 µM (inactive)	29.3 µM (inactive)	–	–	18 µM (inactive)	17.7 µM (inactive)	17.7 µM (inactive)	–	–	26 µM (inactive)	25.2 µM (inactive)	20.9 µM (inactive)	4.01 µM (inactive)
CC(C)Oc1cccc(N2C(NCc3c[nH]c4ccccc34)=Nc3ccncc3S2(=O)=O)c1	30.3 µM (inactive)	34.8 µM (inactive)	27.7 µM (inactive)	21 µM (inactive)	–	32.4 µM (inactive)	12.9 µM (inactive)	34.4 µM (inactive)	47.8 µM (inactive)	7.01 µM (inactive)	32.2 µM (inactive)	18.7 µM (inactive)	45.8 µM (inactive)	18.6 µM (inactive)	39.5 µM (inactive)	28.8 µM (inactive)	33.7 µM (inactive)	25.2 µM (inactive)	29.4 µM (inactive)	21.5 µM (inactive)
COC(=O)C(/C(=N\O)C(=O)Nc1cccc(Cl)c1C)c1cnc2ccccc2n1 (stereo not drawn)	> 100 µM (inactive)	> 100 µM (inactive)	> 100 µM (inactive)	> 100 µM (inactive)	> 100 µM (inactive)	> 100 µM (inactive)	> 100 µM (inactive)	> 100 µM (inactive)	> 100 µM (inactive)	–	> 100 µM (inactive)	> 100 µM (inactive)	> 100 µM (inactive)	> 100 µM (inactive)	> 100 µM (inactive)	> 100 µM (inactive)	> 100 µM (inactive)	> 100 µM (inactive)	> 100 µM (inactive)	–
Cc1ccsc1/C=N/NC1=NCCN1	> 100 µM (inactive)	> 100 µM (inactive)	> 100 µM (inactive)	> 100 µM (inactive)	> 100 µM (inactive)	> 100 µM (inactive)	> 100 µM (inactive)	> 100 µM (inactive)	> 100 µM (inactive)	> 100 µM (inactive)	> 100 µM (inactive)	55.3 µM (inactive)	> 100 µM (inactive)	> 100 µM (inactive)	> 100 µM (inactive)	–	> 100 µM (inactive)	> 100 µM (inactive)	> 100 µM (inactive)	–
CCCCc1ccc(Nc2cc(=O)n(C)c(=O)[nH]2)cc1	> 100 µM (inactive)	> 100 µM (inactive)	72.6 µM (inactive)	> 100 µM (inactive)	89.7 µM (inactive)	> 100 µM (inactive)	> 100 µM (inactive)	32.8 µM (inactive)	> 100 µM (inactive)	> 100 µM (inactive)	64.4 µM (inactive)	> 100 µM (inactive)	> 100 µM (inactive)	> 100 µM (inactive)	> 100 µM (inactive)	–	> 100 µM (inactive)	> 100 µM (inactive)	54.3 µM (inactive)	–
CNNC1=NS(=O)(=O)c2cc(C(=O)OC)c(Cl)cc2S1	> 10 µM (inactive)	> 10 µM (inactive)	> 10 µM (inactive)	> 10 µM (inactive)	> 10 µM (inactive)	> 10 µM (inactive)	> 10 µM (inactive)	> 10 µM (inactive)	> 10 µM (inactive)	> 10 µM (inactive)	> 10 µM (inactive)	> 10 µM (inactive)	> 10 µM (inactive)	> 10 µM (inactive)	> 10 µM (inactive)	–	> 10 µM (inactive)	> 10 µM (inactive)	> 10 µM (inactive)	> 10 µM (inactive)
C[n+]1c2ccccc2c(C(=O)Nc2ccc(S(=O)(=O)Nc3ncccn3)cc2)c2ccccc21	> 100 µM (inactive)	45.1 µM (inactive)	72.6 µM (inactive)	> 100 µM (inactive)	71.9 µM (inactive)	42.3 µM (inactive)	> 100 µM (inactive)	> 100 µM (inactive)	> 100 µM (inactive)	> 100 µM (inactive)	> 100 µM (inactive)	> 100 µM (inactive)	> 100 µM (inactive)	> 100 µM (inactive)	> 100 µM (inactive)	> 100 µM (inactive)	> 100 µM (inactive)	> 100 µM (inactive)	> 100 µM (inactive)	–
CC12CC(OC(=O)[C@]1(C)O)[C@@H]([C@]1(O)CC[C@H]3[C@@H]4C[C@H]5O[C@]56[C@@H](O)C=CC(=O)[C@]6(C)[C@H]4CC[C@@]31C)C2 (stereo partly drawn)	3.04 µM (inactive)	4.06 µM (inactive)	3.63 µM (inactive)	9.02 µM (inactive)	5.2 µM (inactive)	7.4 µM (inactive)	2.59 µM (inactive)	11.2 µM (inactive)	11 µM (inactive)	–	5.41 µM (inactive)	33.7 µM (inactive)	11.7 µM (inactive)	6.08 µM (inactive)	6.19 µM (inactive)	–	3.18 µM (inactive)	7.36 µM (inactive)	13.8 µM (inactive)	< 0.01 µM (active)
